# Assay results reported in patent publication US20250113823A1, “Arthropod Control Compositions” (priority 2022, published 2025).
# Read-outs that look alike come from different tables or passages of the source.
# Test system: Aedes aegypti
# Experiment: Warm Body assay, mosquito landings on treated warm body
# Format: in vivo
# Settings: for pest or weed control at 16 µg/mL / pest or weed control at 400 µg/mL / pest or weed control at 10000 µg/mL / pest or weed control at 1 % / pest or weed control at 3.2 µg/mL / pest or weed control at 7.1 µg/mL / pest or weed control at 35.7 µg/mL / pest or weed control at 53 µg/mL / pest or weed control at 80 µg/mL / pest or weed control at 119 µg/mL / pest or weed control at 178 µg/mL / pest or weed control at 267 µg/mL / pest or weed control at 598 µg/mL / pest or weed control at 890 µg/mL / pest or weed control at 2000 µg/mL / pest or weed control at 4470 µg/mL / pest or weed control at 0.04 % / pest or weed control at 0.0016 %: Aedes aegypti; for pest or weed control at 16 µg/mL / pest or weed control at 400 µg/mL / pest or weed control at 10000 µg/mL / pest or weed control at 3.2 µg/mL / pest or weed control at 7.1 µg/mL / pest or weed control at 35.7 µg/mL / pest or weed control at 53 µg/mL / pest or weed control at 80 µg/mL / pest or weed control at 119 µg/mL / pest or weed control at 178 µg/mL / pest or weed control at 267 µg/mL / pest or weed control at 598 µg/mL / pest or weed control at 890 µg/mL / pest or weed control at 2000 µg/mL / pest or weed control at 4470 µg/mL: read-out: Percentage of repellence of mosquitoes Aedes aegypti landing on the warm body; for pest or weed control at 1 % / pest or weed control at 0.04 %: read-out: repellence; for pest or weed control at 7.1 µg/mL: 0.0071 mg/mL (Table 1); for pest or weed control at 53 µg/mL: 0.053 mg/mL (Table 1); for pest or weed control at 119 µg/mL: 0.119 mg/mL (Table 1); for pest or weed control at 267 µg/mL: 0.267 mg/mL (Table 1); for pest or weed control at 598 µg/mL: 0.598 mg/mL (Table 1); for pest or weed control at 4470 µg/mL: 4.47 mg/mL (Table 1); for pest or weed control at 0.0016 %: read-out: reduce the number of mosquito landings
# Experimental: The arthropod controlling effect according to the present invention is determined on mosquitoes using an adapted Warm Body assay as defined in Kröber T, Kessler S, Frei J, Bourquin M, Guerin PM. An in vitro assay for testing mosquito controlling compounds employing a warm body and carbon dioxide as a behavioral activator. J Am Mosq Control Assoc. 2010; 26: 381-386. Further information is provided in the accompanying examples
# The controlling effect, repellence & spatial repellence, according to the present invention is determined by testing the Warm Body assay against the yellow fever mosquito, Aedes aegypti Rockefeller strain. […] Observations of controlling efficacy were made on host-seeking females of uniform age, 5 to 10 days old selected as mentioned in the publication mentioned hereinabove. Tested hungry females had access to 10% sugar solution but were not blood-fed. Further information is provided in the accompanying examples.
# The published protocol has been adapted in not manually counting the landing mosquitoes but automatically using an automatic counting software, the switch from Anopheles gambiae to A. aegypti led to a decrease of mosquitoes' number placed in the tested cage due to the size difference (i.e. 30 mosquitoes instead of 50) and to an increase of lighting as A. aegypti is a diurnal mosquitoes (i.e. 150 lux instead of 4 lux). Further information is provided in the accompanying examples. […]
# The controlling effect according to the present invention was assessed using an adapted Warm Body assay as defined in Kröber T, Kessler S, Frei J, Bourquin M, Guerin P M. 2010. J Am Mosq Control Assoc. 26: 381-386. In this in-vitro assay the number of mosquito landing on a warm body, simulating an attractive host treated with the tested stimuli, was measured in order to assess the repellence effect.
# The published protocol has been adapted as the switch from Anopheles gambiae to Aedes aegypti led to a decrease of mosquitoes placed in the tested cage due to the size difference (i.e. 30 mosquitoes instead of 50) and to an increase of lighting since A. aegypti is a diurnal mosquitoes (i.e. 150 lux instead of 4 lux).
# On the sandblasted glass Petri dish covering the warm body (28.3 cm^2), 100 μL of the compounds diluted at different concentrations in ethanol was applied. The number of mosquito landing on the warm body was counted for each stimulus and pure ethanol (solvent) as control.
# [1] = highest tested concentration, 1% (Table 3)
# [2] = intermediate concentration of 0.04% (Table 3)
# [3] = lowest concentration of 0.0016% (Table 3)
smiles,measurement,setting,value
"COc1ccc(C(C)=O)c(OC)c1OC [compound 2269, 1-(2,3,4-trimethoxyphenyl)ethanone]",pest or weed control at 16 µg/mL,0.016 mg/mL (Table 3),18%
same,pest or weed control at 400 µg/mL,0.4 mg/mL (Table 3),70%
same,pest or weed control at 10000 µg/mL,10 mg/mL (Table 3),100%
same,pest or weed control at 1 %,[1],> 90%
same,mosquito landing within the two minutes of experiments,[1],protect the attractive stimulus for any mosquito landing
"CC=Cc1cc(OC)c(OC)c(OC)c1 [compound 1123, 1,2,3-trimethoxy-5-[1-propen-1-yl]benzene]",pest or weed control at 3.2 µg/mL,0.0032 mg/mL (Table 1),28%
same,pest or weed control at 7.1 µg/mL,,10%
same,pest or weed control at 16 µg/mL,0.016 mg/mL (Table 1),63%
same,pest or weed control at 35.7 µg/mL,0.0357 mg/mL (Table 1),45%
same,pest or weed control at 53 µg/mL,,81%
same,pest or weed control at 80 µg/mL,0.08 mg/mL (Table 1),67%
same,pest or weed control at 119 µg/mL,,71%
same,pest or weed control at 178 µg/mL,0.178 mg/mL (Table 1),83%
same,pest or weed control at 267 µg/mL,,90%
same,pest or weed control at 400 µg/mL,0.4 mg/mL (Table 1),91%
same,pest or weed control at 598 µg/mL,,95%
same,pest or weed control at 890 µg/mL,0.89 mg/mL (Table 1),90%
same,pest or weed control at 2000 µg/mL,2 mg/mL (Table 1),98%
same,pest or weed control at 4470 µg/mL,,100%
same,pest or weed control at 10000 µg/mL,10 mg/mL (Table 1),98%
"COc1cc(C)cc(OC)c1OC [compound 2250, 1,2,3-trimethoxy-5-methybenzene]",Percentage of repellence of mosquitoes Aedes aegypti landing on the warm body,0.016 mg/mL (Table 3),21%
same,Percentage of repellence of mosquitoes Aedes aegypti landing on the warm body,0.4 mg/mL (Table 3),57%
same,Percentage of repellence of mosquitoes Aedes aegypti landing on the warm body,10 mg/mL (Table 3),100%
same,mosquito landing within the two minutes of experiments,[1],protect the attractive stimulus for any mosquito landing
"COc1cc(CC=O)ccc1O [compound 1467, 2-(4-hydroxy-3-methoxyphenyl)acetaldehyde]",pest or weed control at 16 µg/mL,0.016 mg/mL (Table 3),29%
same,pest or weed control at 400 µg/mL,0.4 mg/mL (Table 3),84%
same,pest or weed control at 10000 µg/mL,10 mg/mL (Table 3),79%
same,pest or weed control at 0.04 %,[2],> 75%
"COc1cc(C=CC(=O)O)cc(OC)c1O [compound 1553, 3-(4-hydroxy-3,5-dimethoxyphenyl)prop-2-enoic acid]",pest or weed control at 16 µg/mL,0.016 mg/mL (Table 3),60%
same,pest or weed control at 400 µg/mL,0.4 mg/mL (Table 3),85%
same,pest or weed control at 10000 µg/mL,10 mg/mL (Table 3),43%
same,pest or weed control at 0.04 %,[2],> 75%
same,pest or weed control at 0.0016 %,[3],> 50%
"COc1cc(CO)cc(OC)c1OC [compound 1968, (3,4,5-trimethoxyphenyl)methanol]",pest or weed control at 16 µg/mL,0.016 mg/mL (Table 3),23%
same,pest or weed control at 400 µg/mL,0.4 mg/mL (Table 3),38%
same,pest or weed control at 10000 µg/mL,10 mg/mL (Table 3),100%
same,pest or weed control at 1 %,[1],> 90%
same,mosquito landing within the two minutes of experiments,[1],protect the attractive stimulus for any mosquito landing
"COc1cc(C=CC(=O)O)cc(OC)c1OC [compound 1566, 3-(3,4,5-trimethoxyphenyl)prop-2-enoic acid]",pest or weed control at 3.2 µg/mL,0.0032 mg/mL (Table 2),0%
same,pest or weed control at 16 µg/mL,0.016 mg/mL (Table 2),20%
same,pest or weed control at 35.7 µg/mL,0.0357 mg/mL (Table 2),22%
same,pest or weed control at 80 µg/mL,0.08 mg/mL (Table 2),0%
same,pest or weed control at 178 µg/mL,0.178 mg/mL (Table 2),30%
same,pest or weed control at 400 µg/mL,0.4 mg/mL (Table 2),81%
same,pest or weed control at 890 µg/mL,0.89 mg/mL (Table 2),69%
same,pest or weed control at 2000 µg/mL,2 mg/mL (Table 2),57%
same,pest or weed control at 10000 µg/mL,10 mg/mL (Table 2),96%
"COc1cccc(OC)c1OC [compound 1822, 1,2,3-trimethoxybenzene]",pest or weed control at 16 µg/mL,0.016 mg/mL (Table 3),54%
same,pest or weed control at 400 µg/mL,0.4 mg/mL (Table 3),39%
same,pest or weed control at 10000 µg/mL,10 mg/mL (Table 3),100%
same,pest or weed control at 1 %,[1],> 90%
same,pest or weed control at 0.0016 %,[3],> 50%
same,mosquito landing within the two minutes of experiments,[1],protect the attractive stimulus for any mosquito landing
"COc1cc(C=O)cc(OC)c1OC [compound 2268, 3,4,5-trimethoxybenzaldehyde]",pest or weed control at 16 µg/mL,,59%
same,pest or weed control at 400 µg/mL,,88%
same,pest or weed control at 10000 µg/mL,,95%
same,pest or weed control at 0.0016 %,,> 50%
same,pest or weed control at 0.04 %,,> 75%
same,pest or weed control at 1 %,,> 90%
"COc1cccc(CO)c1OC [compound 2263, (2,3-dimethoxyphenyl)methanol]",pest or weed control at 16 µg/mL,0.016 mg/mL (Table 3),52%
same,pest or weed control at 400 µg/mL,0.4 mg/mL (Table 3),96%
same,pest or weed control at 10000 µg/mL,10 mg/mL (Table 3),97%
same,pest or weed control at 1 %,[1],> 90%
same,pest or weed control at 0.04 %,[2],> 75%
same,pest or weed control at 0.0016 %,[3],> 50%
"COc1cc(CC(=O)O)ccc1O [compound 1567, 2-(4-hydroxy-3-methoxyphenyl)acetic acid]",pest or weed control at 16 µg/mL,0.016 mg/mL (Table 3),54%
same,pest or weed control at 400 µg/mL,0.4 mg/mL (Table 3),86%
same,pest or weed control at 10000 µg/mL,10 mg/mL (Table 3),98%
same,pest or weed control at 1 %,[1],> 90%
same,pest or weed control at 0.04 %,[2],> 75%
same,pest or weed control at 0.0016 %,,> 50%
"CC=Cc1cc(OC)c(O)c(OC)c1 [compound 1124, 2,6-dimethoxy-4-[prop-1-enyl]phenol]",pest or weed control at 3.2 µg/mL,0.0032 mg/mL (Table 1),26%
same,pest or weed control at 7.1 µg/mL,,40%
same,pest or weed control at 16 µg/mL,0.016 mg/mL (Table 1),62%
same,pest or weed control at 35.7 µg/mL,0.0357 mg/mL (Table 1),0%
same,pest or weed control at 53 µg/mL,,48%
same,pest or weed control at 80 µg/mL,0.08 mg/mL (Table 1),84%
same,pest or weed control at 119 µg/mL,,35%
same,pest or weed control at 178 µg/mL,0.178 mg/mL (Table 1),66%
same,pest or weed control at 267 µg/mL,,59%
same,pest or weed control at 400 µg/mL,0.4 mg/mL (Table 1),78%
same,pest or weed control at 598 µg/mL,,69%
same,pest or weed control at 890 µg/mL,0.89 mg/mL (Table 1),78%
same,pest or weed control at 2000 µg/mL,2 mg/mL (Table 1),95%
same,pest or weed control at 4470 µg/mL,,85%
same,pest or weed control at 10000 µg/mL,10 mg/mL (Table 1),98%
"CCOc1cc(C=O)ccc1OC(=O)C(C)C [compound 1469, (2-ethoxy-4-formylphenyl) 2-methylpropanoate]",pest or weed control at 16 µg/mL,0.016 mg/mL (Table 3),64%
same,pest or weed control at 400 µg/mL,0.4 mg/mL (Table 3),65%
same,pest or weed control at 10000 µg/mL,10 mg/mL (Table 3),95%
same,pest or weed control at 1 %,[1],> 90%
same,pest or weed control at 0.0016 %,[3],> 50%
"C=CCc1cc(OC)c(OC)c(OC)c1 [compound 1682, 1,2,3-trimethoxy-5-prop-2-enylbenzene]",pest or weed control at 16 µg/mL,0.016 mg/mL (Table 3),0%
same,pest or weed control at 400 µg/mL,0.4 mg/mL (Table 3),73%
same,pest or weed control at 10000 µg/mL,10 mg/mL (Table 3),90%
same,pest or weed control at 1 %,[1],> 90%
"COc1cc(C2CC=C(C)CO2)ccc1O (centres unmarked) [compound 1478, 2-methoxy-4-(5-methyl-3,6-dihydro-2H-pyran-2-yl)phenol]",pest or weed control at 16 µg/mL,0.016 mg/mL (Table 3),0%
same,pest or weed control at 400 µg/mL,0.4 mg/mL (Table 3),76%
same,pest or weed control at 10000 µg/mL,10 mg/mL (Table 3),73%
same,pest or weed control at 0.04 %,[2],> 75%
"CCCc1ccc2c(c1)OCC(=O)CO2 [compound 465, 7-propyl-1,5-benzoodioxepin-3-one]",Percentage of repellence of mosquitoes Aedes aegypti landing on the warm body,0.016 mg/mL (Table 3),4%
same,Percentage of repellence of mosquitoes Aedes aegypti landing on the warm body,0.4 mg/mL (Table 3),36%
same,Percentage of repellence of mosquitoes Aedes aegypti landing on the warm body,10 mg/mL (Table 3),87%
"COc1ccc2ccc(=O)oc2c1O [compound 1551, 8-hydroxy-7-methoxychromen-2-one]",pest or weed control at 16 µg/mL,0.016 mg/mL (Table 3),55%
same,pest or weed control at 400 µg/mL,0.4 mg/mL (Table 3),42%
same,pest or weed control at 10000 µg/mL,10 mg/mL (Table 3),91%
same,pest or weed control at 1 %,[1],> 90%
same,pest or weed control at 0.0016 %,[3],> 50%
